# Laboratory results as given in patent US20070021509A1, “Phosphate transport inhibitors” (priority 2001, published 2007).
# Tested on: phosphate uptake by rabbit intestinal Brush Border Membrane Vesicles (BBMV)
# Assay: 33PO4 uptake in rabbit intestinal BBMV (HTS), phosphate transporter inhibition in vitro
# Type: biochemical
# Details: Table 12, 100 μM compound
# Method in brief: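 BBMV from duodenal mucosa of male New Zealand White rabbits, diluted to about 0.5-2.0 mg/mL protein. Uptake buffers carried 33PO4 at 200,000 CPM/19 μL. Controls: Na uptake buffer (max), plus 100 μM KH2PO4 pH 7.4 (mid), K uptake buffer (min).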
row,SMILES,% Inhib. at 100 μM
1,O=S(=O)(Cc1ccc(Cl)cc1Cl)c1cc(C(F)(F)F)cc(C(F)(F)F)c1 [Compound 280],57%
2,Cc1ccc(S(=O)(=O)Cc2c(Cl)cccc2Cl)cc1 [Compound 281],53%
3,Cc1cccc(CS(=O)(=O)c2ccc(Cl)cc2)c1F [Compound 282],53%
4,O=S(=O)(Cc1c(Cl)cccc1Cl)c1cc(C(F)(F)F)cc(C(F)(F)F)c1 [Compound 283],51%
5,Cc1cc(S(=O)(=O)Cc2ccc(Cl)c(Cl)c2)c(Cl)cc1Cl [Compound 284],51%
6,O=[N+]([O-])c1ccc(CS(=O)(=O)c2ccc(F)cc2F)c(Cl)c1 [Compound 285],44%
7,O=S(=O)(Cc1c(F)cccc1Cl)c1ccc(Cl)cc1 [Compound 286],39%
8,O=S(=O)(Cc1ccccc1)c1ccccc1 [Compound 287],34%
9,O=S(=O)(Cc1ccc(Br)cc1F)c1ccc(Cl)cc1 [Compound 288],31%
10,O=S(=O)(Cc1ccc(C(F)(F)F)cc1)c1ccc(Cl)cc1 [Compound 291],0%

# Same assay, conditions: Table 13, phosphate uptake, read-out: IC50
row,SMILES,IC50
1,O=S(=O)(O)c1cc(/N=N/c2ccc(O)cc2)ccc1/C=C/c1ccc(/N=N/c2ccc(O)cc2)cc1S(=O)(=O)O [Compound 292],< 50 µM
2,O=S(=O)(O)c1cc(NS(=O)(=O)c2ccc(-c3ccccc3)cc2)ccc1/C=C/c1ccc(NS(=O)(=O)c2ccc(-c3ccccc3)cc2)cc1S(=O)(=O)O [Compound 293],51 to 100 µM
3,O=[N+]([O-])c1ccc(S(=O)(=O)Nc2ccc(/C=C/c3ccc(NS(=O)(=O)c4ccc([N+](=O)[O-])cc4)cc3S(=O)(=O)O)c(S(=O)(=O)O)c2)cc1 [Compound 294],101 to 500 µM
4,O=S(=O)(O)c1cc(NS(=O)(=O)c2cccc(C(F)(F)F)c2)ccc1/C=C/c1ccc(NS(=O)(=O)c2cccc(C(F)(F)F)c2)cc1S(=O)(=O)O [Compound 296],101 to 500 µM
5,O=[N+]([O-])c1cccc(S(=O)(=O)Nc2ccc(/C=C/c3ccc(NS(=O)(=O)c4cccc([N+](=O)[O-])c4)cc3S(=O)(=O)O)c(S(=O)(=O)O)c2)c1 [Compound 297],101 to 500 µM
6,O=S(=O)(O)c1cc(NS(=O)(=O)c2ccc(-c3ccccc3)cc2)ccc1/C=C/c1ccc(NS(=O)(=O)c2ccc(-c3ccccc3)cc2)cc1S(=O)(=O)O [Compound 298],501 to 1000 µM
7,O=S(=O)(O)c1cc(NS(=O)(=O)c2cccc3ccccc23)ccc1/C=C/c1ccc(NS(=O)(=O)c2cccc3ccccc23)cc1S(=O)(=O)O [Compound 299],501 to 1000 µM
8,O=C(Nc1ccc(/C=C/c2ccc(NC(=O)c3ccccc3)cc2S(=O)(=O)O)c(S(=O)(=O)O)c1)c1ccccc1 [Compound 300],501 to 1000 µM
9,O=S(=O)(O)c1cc(NS(=O)(=O)c2cccc(Cl)c2)ccc1/C=C/c1ccc(NS(=O)(=O)c2cccc(Cl)c2)cc1S(=O)(=O)O [Compound 301],501 to 1000 µM
10,O=S(=O)(O)c1cc(Nc2nc(Nc3ccccc3)nc(N(CCO)CCO)n2)ccc1/C=C/c1ccc(Nc2nc(Nc3ccccc3)nc(N(CCO)CCO)n2)cc1S(=O)(=O)O [Compound 302],501 to 1000 µM
11,O=[N+]([O-])c1ccc(S(=O)(=O)Nc2ccc(/C=C/c3ccc(NS(=O)(=O)c4ccc([N+](=O)[O-])cc4)cc3S(=O)(=O)O)c(S(=O)(=O)O)c2)cc1 [Compound 303],501 to 1000 µM
12,O=[N+]([O-])c1ccc(/C=C/c2ccc([N+](=O)[O-])cc2S(=O)(=O)O)c(S(=O)(=O)O)c1 [Compound 305],1000 to 1500 µM
13,Oc1ccc(/C=C/c2ccc(O)cc2)cc1 [Compound 306],> 1500 µM
14,O=S(=O)(O)c1cc(N=C=S)ccc1/C=C/c1ccc(N=C=S)cc1S(=O)(=O)O [Compound 307],> 1500 µM
15,Nc1ccc(/C=C/c2ccc(N)cc2)cc1 [Compound 308],> 1500 µM
16,Cc1ccc(S(=O)(=O)Nc2ccc(/C=C/c3ccc(NS(=O)(=O)c4ccc(C)c([N+](=O)[O-])c4)cc3S(=O)(=O)O)c(S(=O)(=O)O)c2)cc1[N+](=O)[O-] [Compound 309],> 1500 µM
17,O=S(=O)(O)c1cc(NS(=O)(=O)c2cccc3cccnc23)ccc1/C=C/c1ccc(NS(=O)(=O)c2cccc3cccnc23)cc1S(=O)(=O)O [Compound 311],> 1500 µM

# Tested on: sodium-dependent phosphate uptake into isolated rabbit intestinal rings
# Assay: Ex vivo 33P uptake into isolated rabbit intestinal rings
# Type: cell-based
# Design: concentration or dose not given beside the values
# Details: Table 14, 15-minute incubation
# Method: For the ex vivo assay, ^33P uptake into isolated rabbit intestinal rings was measured using a modification of the method described by Crane and Mandelstam [Robert K. Crane and Paul Mandelstam “The active transport of sugars by various preparations of hamster intestine” Biochim. Biophys. Acta 45: 460-476, 1960; the contents of which are incorporated herein by reference]. Male New Zealand rabbits 2-3 kg in weight were aeuthinized by an i.v. injection of Fatal Pluse®. A midline laparotomy was performed and the duodenum from the pyloric junction to the ligament of Trietz isolated and excised. Segments of bowel were everted, cut into 2-4 mm ring-like pieces and placed into a modified Hepes-Buffered Ringer's solution in which Na^+ had been iso-osmotically replaced with N-methyl-D-glucamine. To measure phosphate uptake, six rings were incubated in a 50 ml conical tube containing a 10 ml volume of Ringer's solution, with or without Na^+, bubbled with 100% O2 and maintained at 37° C. 0.5 uCi/ml ^33P was then incubated with the rings for a 15-minute period, the tissue harvested, rinsed, blotted dry and weighed. Tissues were then solublized by digesting them in a 5 ml volume of Solvable® tissue solubilizer overnight at 50° C. and ^33P levels determined by scintillation counting. Sodium-dependent uptake of ^33P was calculated by determining the difference in uptake between rings incubated in the presence and absence of Na^+ in the Hepes-Buffered Ringer's solution. Results are reported as the percentage inhibition of phosphate and glucose uptake, respectively.
row,SMILES,% Phosphate Transport Inhibition
1,"O=C(NCc1ccccc1OC(F)(F)F)c1cc(Br)ccc1NS(=O)(=O)c1ccc(Cl)cc1 [Example 72, 5-Bromo-2-(4-chloro-benzenesulfonylamino)-N-(2-trifluoromethoxy-benzyl)-benzamide]",24%
2,"COc1ccccc1CNC(=O)c1cc(Br)ccc1NS(=O)(=O)c1ccc(C(F)(F)F)cc1[N+](=O)[O-] [Example 80, 5-Bromo-N-(2-methoxy-benzyl)-2-(4-trifluoromethyl-2-nitro-benzenesulfonylamino)-benzamide]",43%
3,"O=C(Nc1ccc(Br)cc1)c1cccc(C(F)(F)F)c1 [Example 81, N-(4-Bromo-phenyl)-3-trifluoromethyl-benzamide]",22%

# Tested on: glucose uptake into isolated rabbit intestinal rings
# Assay: Ex vivo glucose uptake into isolated rabbit intestinal rings
# Type: cell-based
# Design: concentration or dose not given beside the values
# Details: Table 14
# Method: For the ex vivo assay, ^33P uptake into isolated rabbit intestinal rings was measured using a modification of the method described by Crane and Mandelstam [Robert K. Crane and Paul Mandelstam “The active transport of sugars by various preparations of hamster intestine” Biochim. Biophys. Acta 45: 460-476, 1960; the contents of which are incorporated herein by reference]. Male New Zealand rabbits 2-3 kg in weight were aeuthinized by an i.v. injection of Fatal Pluse®. A midline laparotomy was performed and the duodenum from the pyloric junction to the ligament of Trietz isolated and excised. Segments of bowel were everted, cut into 2-4 mm ring-like pieces and placed into a modified Hepes-Buffered Ringer's solution in which Na^+ had been iso-osmotically replaced with N-methyl-D-glucamine. […] […] Tissues were then solublized by digesting them in a 5 ml volume of Solvable® tissue solubilizer overnight at 50° C. and ^33P levels determined by scintillation counting. Sodium-dependent uptake of ^33P was calculated by determining the difference in uptake between rings incubated in the presence and absence of Na^+ in the Hepes-Buffered Ringer's solution. Results are reported as the percentage inhibition of phosphate and glucose uptake, respectively.
row,SMILES,% Glucose Transport Inhibition
1,"O=C(NCc1ccccc1OC(F)(F)F)c1cc(Br)ccc1NS(=O)(=O)c1ccc(Cl)cc1 [Example 72, 5-Bromo-2-(4-chloro-benzenesulfonylamino)-N-(2-trifluoromethoxy-benzyl)-benzamide]",6%
2,"COc1ccccc1CNC(=O)c1cc(Br)ccc1NS(=O)(=O)c1ccc(C(F)(F)F)cc1[N+](=O)[O-] [Example 80, 5-Bromo-N-(2-methoxy-benzyl)-2-(4-trifluoromethyl-2-nitro-benzenesulfonylamino)-benzamide]",39%
3,"O=C(Nc1ccc(Br)cc1)c1cccc(C(F)(F)F)c1 [Example 81, N-(4-Bromo-phenyl)-3-trifluoromethyl-benzamide]",13%
